Test results from US11666558B2, “Methods of treating intraocular pressure with activators of Tie-2” (EyePoint Pharmaceuticals, Inc., priority 2015, dated 2023).
“And” between values parts separate entries of the source, which are not always exact repeats. Identical values can stand only once. Counter-ions that a name gives are not always drawn. Each block holds one compound with its values, some of them ahead of it.

Experiments:
[1] = Ocular abnormalities in the ocular pharmacokinetics study; type: in vivo, New Zealand White rabbits; settings: all dose groups (topical ocular, subcutaneous, intravitreal)
Description: Pre-screening clinical ophthalmic exams were done prior to study (includes slit-lamp biomicroscopy and indirect ophthalmoscopy). Ocular findings were scored using the McDonald-Shadduck Score System, and only animals that scored zero in all categories were used in the study.
Concentration versus time data is plotted in FIGS. 3-16. All data are expressed as ng/g of the free drug. Samples that were below the limit of quantitation (0.2 ng/mL) were not used in the calculation of averages.

intraocular pressure [2] = test: Intraocular pressure change from baseline, Compound 1 BID at varying doses, 28 Day EOT (FIG. 1); type: in vivo, human; settings: doses greater than 15 mg BID, patients with diabetic macular edema
Description: The difference in IOP was determined at the end of the trial, which was 28 days after treatment began (28 Day EOT). Changes in IOP were determined both in the study eye and the fellow eye.

intraocular pressure [3] = test: Intraocular pressure (pneumotonometer) after repeated topical and subcutaneous administration in normotensive rabbits; type: in vivo, New Zealand White rabbits
Description: To measure the tolerability and effect of Compound 1 (sodium salt) on intraocular pressure following repeated topical and subcutaneous administration, normotensive New Zealand White rabbits were treated with Compound 1 (sodium salt). Animals were acclimated 1 to 2 times per day to the intraocular pressure (IOP) measurement procedures prior to initiation of the study to determine baseline IOP levels. IOP acclimation was performed in the two weeks prior to study start for a total of 5 days. Animals with unacceptable IOP values were excluded from the study. Prior to taking all IOP measurements, 1 to 2 drops of a 0.5% proparacaine solution were applied to the eye as a topical anesthetic. OP measurements were performed with a pneumotonometer. Test and control formulations were administered to the animals once or twice daily topically into both eyes or subcutaneously starting on Day 1 according to TABLE 20 and TABLE 21 below. PM dosing, where applicable, was performed ˜8 hours after AM dosing. IOP measurements were performed twice (AM and PM) at baseline (prior to the start of dosing), twice (AM and PM) on Days 1 and 7, and once daily (AM) on Days 2-6 and Day 8. Prior to taking all IOP measurements, 1 to 2 drops of a 0.5% proparacaine solution were applied to the eye as a topical anesthetic. IOP measurements were performed with a pneumotonometer. AM IOP measurements were performed 2 hours after AM dosing; the only exceptions were Day 8 AM measurements, which were performed 24 hours after the final dose. PM IOP measurements were performed ˜5 hours (baseline and Day 1) or ˜4 hours (Day 7) after AM IOP measurements, prior to PM dosing, with at least 15 minutes elapsing between anesthetic application for PM IOP measurements and PM dosing. The final round of slit-lamp examinations was performed on Day 8.

[4] = Group 2, 0.45 mg/eye topical BID, Day 1, AM, OS
[5] = Group 2, 0.45 mg/eye topical BID, Day 1, PM, OD
[6] = Group 2, 0.45 mg/eye topical BID, Day 2, AM, OD
[7] = Group 2, 0.45 mg/eye topical BID, Day 2, AM, OS
[8] = Group 2, 0.45 mg/eye topical BID, Day 3, AM, OD
[9] = Group 2, 0.45 mg/eye topical BID, Day 3, AM, OS
[10] = Group 2, 0.45 mg/eye topical BID, Day 4, AM, OD
[11] = Group 2, 0.45 mg/eye topical BID, Day 4, AM, OS
[12] = Group 2, 0.45 mg/eye topical BID, Day 5, AM, OD
[13] = Group 3, 1.2 mg/eye topical BID, Day 1, AM, OD
[14] = Group 3, 1.2 mg/eye topical BID, Day 1, AM, OS
[15] = Group 3, 1.2 mg/eye topical BID, Day 1, PM, OD
[16] = Group 3, 1.2 mg/eye topical BID, Day 2, AM, OS
[17] = Group 3, 1.2 mg/eye topical BID, Day 3, AM, OD
[18] = Group 3, 1.2 mg/eye topical BID, Day 3, AM, OS
[19] = Group 3, 1.2 mg/eye topical BID, Day 4, AM, OD
[20] = Group 3, 1.2 mg/eye topical BID, Day 4, AM, OS
[21] = Group 3, 1.2 mg/eye topical BID, Day 5, AM, OS
[22] = Group 4, 1.2 mg/eye topical QD, Day 1, AM, OD
[23] = Group 4, 1.2 mg/eye topical QD, Day 2, AM, OD
[24] = Group 4, 1.2 mg/eye topical QD, Day 5, AM, OD

ocular abnormalities [1]: No ocular abnormalities
Compound: COC(=O)N[C@@H](Cc1ccccc1)C(=O)N[C@@H](Cc1ccc(NS(=O)(=O)O)cc1)c1csc(-c2cccs2)n1 [Compound 1]
intraocular pressure (IOP) relative to pre-treatment baseline (intraocular pressure [2]): decreased IOP

Compound: COC(=O)N[C@@H](Cc1ccccc1)C(=O)N[C@@H](Cc1ccc(NS(=O)(=O)O)cc1)c1csc(-c2cccs2)n1 [Compound 1 sodium salt]
Intraocular pressure (IOP), individual animal (intraocular pressure [3]; Group 2, 0.45 mg/eye topical BID, Day 1, AM, OD): 20.3 and 23.7 and 24.0 and 20.7 and 21.7
Intraocular pressure (IOP), group Average (intraocular pressure [3]; [4]): 23.3
Intraocular pressure (IOP), individual animal (intraocular pressure [3]; [4]): 20.7 and 25.2 and 23.3
Intraocular pressure (IOP), group Average (intraocular pressure [3]; [5]): 25.5
Intraocular pressure (IOP), individual animal (intraocular pressure [3]; [5]): 24.8 and 22.0
Intraocular pressure (IOP), individual animal (intraocular pressure [3]; Group 2, 0.45 mg/eye topical BID, Day 1, PM, OS): 25.3
Intraocular pressure (IOP), group Average (intraocular pressure [3]; [6]): 21.9
Intraocular pressure (IOP), individual animal (intraocular pressure [3]; [6]): 22.0 and 22.7 and 25.0
Intraocular pressure (IOP), group Average (intraocular pressure [3]; [7]): 22.2
Intraocular pressure (IOP), individual animal (intraocular pressure [3]; [7]): 22.3 and 24.3
Intraocular pressure (IOP), group Average (intraocular pressure [3]; [8]): 24.0
Intraocular pressure (IOP), individual animal (intraocular pressure [3]; [8]): 25.0 and 24.2 and 26.0 and 23.8
Intraocular pressure (IOP), group Average (intraocular pressure [3]; [9]): 24.5
Intraocular pressure (IOP), individual animal (intraocular pressure [3]; [9]): 25.3 and 23.5 and 26.0 and 23.0
Intraocular pressure (IOP), group Average (intraocular pressure [3]; [10]): 23.9
Intraocular pressure (IOP), individual animal (intraocular pressure [3]; [10]): 23.8 and 22.0 and 26.7 and 25.7
Intraocular pressure (IOP), group Average (intraocular pressure [3]; [11]): 24.3
Intraocular pressure (IOP), individual animal (intraocular pressure [3]; [11]): 23.0 and 22.7 and 26.3 and 23.5 and 26.2
Intraocular pressure (IOP), group Average (intraocular pressure [3]; [12]): 25.2
Intraocular pressure (IOP), individual animal (intraocular pressure [3]; [12]): 22.8 and 28.0 and 20.7 and 25.7
Intraocular pressure (IOP), individual animal (intraocular pressure [3]; Group 2, 0.45 mg/eye topical BID, Day 5, AM, OS): 25.0 and 28.0 and 24.2 and 26.3
Intraocular pressure (IOP), group Average (intraocular pressure [3]; Group 2, 0.45 mg/eye topical BID, Day 6, AM, OD): 25.5
Intraocular pressure (IOP), group Average (intraocular pressure [3]; Group 2, 0.45 mg/eye topical BID, Day 7, AM, OD): 23.7
Intraocular pressure (IOP), group Average (intraocular pressure [3]; Group 2, 0.45 mg/eye topical BID, Day 7, AM, OS): 24.5
Intraocular pressure (IOP), group Average (intraocular pressure [3]; [13]): 22.0
Intraocular pressure (IOP), individual animal (intraocular pressure [3]; [13]): 23.2 and 24.0 and 20.2
Intraocular pressure (IOP), group Average (intraocular pressure [3]; [14]): 23.2
Intraocular pressure (IOP), individual animal (intraocular pressure [3]; [14]): 23.8 and 23.0 (2×)
Intraocular pressure (IOP), group Average (intraocular pressure [3]; [15]): 24.1
Intraocular pressure (IOP), individual animal (intraocular pressure [3]; [15]): 24.7 and 25.2
Intraocular pressure (IOP), individual animal (intraocular pressure [3]; Group 3, 1.2 mg/eye topical BID, Day 1, PM, OS): 24.5 (2×) and 23.7 and 25.0
Intraocular pressure (IOP), individual animal (intraocular pressure [3]; Group 3, 1.2 mg/eye topical BID, Day 2, AM, OD): 17.5 and 25.5
Intraocular pressure (IOP), group Average (intraocular pressure [3]; [16]): 21.2
Intraocular pressure (IOP), individual animal (intraocular pressure [3]; [16]): 20.2 and 24.0 and 24.5
Intraocular pressure (IOP), group Average (intraocular pressure [3]; [17]): 20.7
Intraocular pressure (IOP), individual animal (intraocular pressure [3]; [17]): 20.0 and 23.0 and 22.2
Intraocular pressure (IOP), group Average (intraocular pressure [3]; [18]): 21.2
Intraocular pressure (IOP), individual animal (intraocular pressure [3]; [18]): 20.0 and 22.7 and 23.0
Intraocular pressure (IOP), group Average (intraocular pressure [3]; [19]): 22.8
Intraocular pressure (IOP), individual animal (intraocular pressure [3]; [19]): 23.2 and 24.8 and 22.2
Intraocular pressure (IOP), group Average (intraocular pressure [3]; [20]): 23.2
Intraocular pressure (IOP), individual animal (intraocular pressure [3]; [20]): 23.3 and 24.2 and 24.5 and 22.3
Intraocular pressure (IOP), individual animal (intraocular pressure [3]; Group 3, 1.2 mg/eye topical BID, Day 5, AM, OD): 21.5 and 23.7
Intraocular pressure (IOP), group Average (intraocular pressure [3]; [21]): 22.0
Intraocular pressure (IOP), individual animal (intraocular pressure [3]; [21]): 22.3 and 23.5
Intraocular pressure (IOP), group Average (intraocular pressure [3]; Group 3, 1.2 mg/eye topical BID, Day 6, AM, OS): 24.7
Intraocular pressure (IOP), group Average (intraocular pressure [3]; Group 3, 1.2 mg/eye topical BID, Day 7, AM, OS): 22.0
Intraocular pressure (IOP), group Average (intraocular pressure [3]; Group 3, 1.2 mg/eye topical BID, Day 7, PM, OD): 23.7
IOP values compared to Group 1 (Vehicle) (intraocular pressure [3]; Group 3, 1.2 mg/eye topical BID, over the course of dosing): lower IOP values
Intraocular pressure (IOP), group Average (intraocular pressure [3]; [22]): 21.2
Intraocular pressure (IOP), individual animal (intraocular pressure [3]; [22]): 22.0 and 20.2
Intraocular pressure (IOP), individual animal (intraocular pressure [3]; Group 4, 1.2 mg/eye topical QD, Day 1, AM, OS): 22.0 and 23.3 and 21.2
Intraocular pressure (IOP), individual animal (intraocular pressure [3]; Group 4, 1.2 mg/eye topical QD, Day 1, PM, OD): 21.3 and 24.0
Intraocular pressure (IOP), individual animal (intraocular pressure [3]; Group 4, 1.2 mg/eye topical QD, Day 1, PM, OS): 22.5 and 25.5
Intraocular pressure (IOP), group Average (intraocular pressure [3]; [23]): 20.0
Intraocular pressure (IOP), individual animal (intraocular pressure [3]; [23]): 20.0 and 20.3
Intraocular pressure (IOP), individual animal (intraocular pressure [3]; Group 4, 1.2 mg/eye topical QD, Day 2, AM, OS): 21.0
Intraocular pressure (IOP), individual animal (intraocular pressure [3]; Group 4, 1.2 mg/eye topical QD, Day 3, AM, OD): 23.5 and 21.0
Intraocular pressure (IOP), individual animal (intraocular pressure [3]; Group 4, 1.2 mg/eye topical QD, Day 3, AM, OS): 20.0 and 21.2
Intraocular pressure (IOP), individual animal (intraocular pressure [3]; Group 4, 1.2 mg/eye topical QD, Day 4, AM, OD): 21.5 and 22.2 and 20.7
Intraocular pressure (IOP), individual animal (intraocular pressure [3]; Group 4, 1.2 mg/eye topical QD, Day 4, AM, OS): 20.0 and 24.3 and 23.5
Intraocular pressure (IOP), group Average (intraocular pressure [3]; [24]): 21.0
Intraocular pressure (IOP), individual animal (intraocular pressure [3]; [24]): 23.8
Intraocular pressure (IOP), individual animal (intraocular pressure [3]; Group 4, 1.2 mg/eye topical QD, Day 5, AM, OS): 22.7 and 22.0
Intraocular pressure (IOP), group Average (intraocular pressure [3]; Group 4, 1.2 mg/eye topical QD, Day 7, AM, OS): 23.0
IOP values compared to Group 1 (Vehicle) (intraocular pressure [3]; Group 4, 1.2 mg/eye topical QD, over the course of dosing): lower IOP values
IOP values compared to Group 1 (Vehicle) (intraocular pressure [3]; Group 5, 10 mg/kg subcutaneous BID): Lower IOP values compared to Group 1 were also seen in the early part of the study
Intraocular pressure (IOP), group Average (intraocular pressure [3]; Group 5, 10 mg/kg subcutaneous BID, Day 2, AM, OD): 21.5
Intraocular pressure (IOP), group Average (intraocular pressure [3]; Group 5, 10 mg/kg subcutaneous BID, Day 3, AM, OD): 20.7
Intraocular pressure (IOP), group Average (intraocular pressure [3]; Group 5, 10 mg/kg subcutaneous BID, Day 3, AM, OS): 21.3
Intraocular pressure (IOP), group Average (intraocular pressure [3]; Group 5, 10 mg/kg subcutaneous BID, Day 4, AM, OD): 21.9
Intraocular pressure (IOP), group Average (intraocular pressure [3]; Group 5, 10 mg/kg subcutaneous BID, Day 6, AM, OD): 24.5
Intraocular pressure (IOP), group Average (intraocular pressure [3]; Group 5, 10 mg/kg subcutaneous BID, Day 6, AM, OS): 25.0
Intraocular pressure (IOP), group Average (intraocular pressure [3]; Group 5, 10 mg/kg subcutaneous BID, Day 7, AM, OS): 23.9
Intraocular pressure (IOP), group Average (intraocular pressure [3]; Group 5, 10 mg/kg subcutaneous BID, Day 7, PM, OD): 24.1
Intraocular pressure (IOP), group Average (intraocular pressure [3]; Group 5, 10 mg/kg subcutaneous BID, Day 8, AM, OS): 24.0
apparent reduction in intraocular pressure values (intraocular pressure [3]; Groups 3 and 4 (1.2 mg/eye topical BID, QD), Day 7 and Day 8 (24 hours after the end of dosing)): persisted
effect on intraocular pressure (intraocular pressure [3]; topically administered, 1.2 mg/eye dose, QD or BID): observed to reduce intraocular pressure
